Laboratory results published in patent publication US20060128792A1, “Deguelin as a chemopreventive agent for lung cancer” (priority 2002, published 2006).
Where “and” joins values, the source holds several entries; their conditions need not be identical. Equal values may be shown once.

What was measured:
Test in all cases: MTT assay, growth inhibition by deguelin or deguelin derivatives
Assay type in all cases: cell-based
Conditions in all cases: 3 days; for % control: control = 1
[1] = test system: H460
[2] = test system: A549
[3] = test system: H596
[4] = test system: H1299

SMILES: COc1cc2c(cc1OC)C1C(=O)c3ccc4c(c3OC1CO2)CC([Se]c1ccccc1)C(C)(C)O4 (stereo not drawn) [Drug 12]
- Average (MTT assay reading) ([1]; H460, 0.01 μM): 0.7451
- MTT assay reading, replicate well ([1]; H460, 0.01 μM): 0.763 and 0.753 and 0.691 and 0.648 and 0.765 and 0.774 and 0.822
- % control ([1]; H460, 0.01 μM): 0.64
- Average (MTT assay reading) ([1]; H460, 0.1 μM): 0.721
- MTT assay reading, replicate well ([1]; H460, 0.1 μM): 0.603 and 0.593 and 0.691 and 0.781 and 0.732 and 0.815 and 0.832
- % control ([1]; H460, 0.1 μM): 0.62
- Average (MTT assay reading) ([1]; H460, 0.5 μM): 0.7127
- MTT assay reading, replicate well ([1]; H460, 0.5 μM): 0.621 and 0.714 and 0.653 and 0.739 and 0.77 and 0.758 and 0.734
- % control ([1]; H460, 0.5 μM): 0.61
- Average (MTT assay reading) ([1]; H460, 1 μM): 0.7406
- MTT assay reading, replicate well ([1]; H460, 1 μM): 0.709 and 0.659 and 0.698 and 0.79 and 0.717 and 0.805 and 0.806
- % control ([1]; H460, 1 μM): 0.63
- Average (MTT assay reading) ([2]; A549, 0.01 μM): 0.6226
- MTT assay reading, replicate well ([2]; A549, 0.01 μM): 0.58 and 0.633 and 0.616 and 0.636 and 0.715 and 0.577 and 0.601
- % control ([2]; A549, 0.01 μM): 1.08
- Average (MTT assay reading) ([2]; A549, 0.1 μM): 0.6147
- MTT assay reading, replicate well ([2]; A549, 0.1 μM): 0.604 and 0.545 and 0.597 and 0.519 and 0.606 and 0.719 and 0.713
- % control ([2]; A549, 0.1 μM): 1.06
- Average (MTT assay reading) ([2]; A549, 0.5 μM): 0.5669
- MTT assay reading, replicate well ([2]; A549, 0.5 μM): 0.533 and 0.614 and 0.532 and 0.584 and 0.567 and 0.553 and 0.585
- % control ([2]; A549, 0.5 μM): 0.98
- Average (MTT assay reading) ([2]; A549, 1 μM): 0.5701
- MTT assay reading, replicate well ([2]; A549, 1 μM): 0.534 and 0.536 and 0.557 and 0.571 and 0.586 (2×) and 0.621
- % control ([2]; A549, 1 μM): 0.99
- Average (MTT assay reading) ([3]; H596, 0.01 μM): 1.421
- MTT assay reading, replicate well ([3]; H596, 0.01 μM): 1.468 and 1.111 and 1.465 and 1.374 and 1.701 and 1.481 and 1.344
- % control ([3]; H596, 0.01 μM): 0.86
- Average (MTT assay reading) ([3]; H596, 0.1 μM): 1.683
- MTT assay reading, replicate well ([3]; H596, 0.1 μM): 1.911 and 1.663 and 1.92 and 1.666 and 1.398 and 1.603 and 1.623
- % control ([3]; H596, 0.1 μM): 1.01
- Average (MTT assay reading) ([3]; H596, 0.5 μM): 1.737
- MTT assay reading, replicate well ([3]; H596, 0.5 μM): 1.686 and 1.82 and 1.177 and 1.899 and 1.872 and 2.048 and 1.655
- % control ([3]; H596, 0.5 μM): 1.05
- Average (MTT assay reading) ([3]; H596, 1 μM): 1.531
- MTT assay reading, replicate well ([3]; H596, 1 μM): 1.143 and 1.448 and 1.604 and 1.637 and 1.497 and 1.557 and 1.828
- % control ([3]; H596, 1 μM): 0.92
- Average (MTT assay reading) ([4]; H1299, 0.01 μM): 0.5509
- MTT assay reading, replicate well ([4]; H1299, 0.01 μM): 0.513 and 0.438 and 0.626 and 0.426 and 0.609 and 0.729 and 0.515
- % control ([4]; H1299, 0.01 μM): 0.72
- Average (MTT assay reading) ([4]; H1299, 0.1 μM): 0.4999
- MTT assay reading, replicate well ([4]; H1299, 0.1 μM): 0.514 and 0.55 and 0.568 and 0.409 and 0.465 and 0.466 and 0.527
- % control ([4]; H1299, 0.1 μM): 0.65
- Average (MTT assay reading) ([4]; H1299, 0.5 μM): 0.628
- MTT assay reading, replicate well ([4]; H1299, 0.5 μM): 0.637 and 0.549 and 0.636 and 0.614 and 0.847 and 0.655 and 0.458
- % control ([4]; H1299, 0.5 μM): 0.82
- Average (MTT assay reading) ([4]; H1299, 1 μM): 0.4001
- MTT assay reading, replicate well ([4]; H1299, 1 μM): 0.434 and 0.41 and 0.413 and 0.451 and 0.378 and 0.357 and 0.358
- % control ([4]; H1299, 1 μM): 0.52

SMILES: COc1cc2c(cc1OC)C1C(=O)c3ccc4c(c3OC1CO2)CCC(C)(C)O4 (stereo not drawn) [Drug 11]
- Average (MTT assay reading) ([1]; H460, 0.01 μM): 0.6664
- MTT assay reading, replicate well ([1]; H460, 0.01 μM): 0.67 and 0.672 and 0.578 and 0.697 and 0.719 and 0.651 and 0.678
- % control ([1]; H460, 0.01 μM): 0.57
- Average (MTT assay reading) ([1]; H460, 0.1 μM): 0.3214
- MTT assay reading, replicate well ([1]; H460, 0.1 μM): 0.352 and 0.354 and 0.375 and 0.234 and 0.26 and 0.303 and 0.372
- % control ([1]; H460, 0.1 μM): 0.27
- Average (MTT assay reading) ([1]; H460, 0.5 μM): 0.3358
- MTT assay reading, replicate well ([1]; H460, 0.5 μM): 0.372 and 0.35 and 0.36 and 0.296 and 0.2577 and 0.283 and 0.432
- % control ([1]; H460, 0.5 μM): 0.29
- Average (MTT assay reading) ([1]; H460, 1 μM): 0.3296
- MTT assay reading, replicate well ([1]; H460, 1 μM): 0.314 (2×) and 0.376 and 0.344 and 0.302 and 0.291 and 0.366
- % control ([1]; H460, 1 μM): 0.28
- Average (MTT assay reading) ([2]; A549, 0.01 μM): 0.7456
- MTT assay reading, replicate well ([2]; A549, 0.01 μM): 0.779 and 0.766 and 0.723 and 0.736 and 0.77 and 0.75 and 0.695
- % control ([2]; A549, 0.01 μM): 1.29
- Average (MTT assay reading) ([2]; A549, 0.1 μM): 0.3701
- MTT assay reading, replicate well ([2]; A549, 0.1 μM): 0.343 and 0.313 and 0.358 and 0.362 and 0.405 and 0.375 and 0.435
- % control ([2]; A549, 0.1 μM): 0.64
- Average (MTT assay reading) ([2]; A549, 0.5 μM): 0.4303
- MTT assay reading, replicate well ([2]; A549, 0.5 μM): 0.355 and 0.444 and 0.514 and 0.418 and 0.47 and 0.413 and 0.398
- % control ([2]; A549, 0.5 μM): 0.75
- Average (MTT assay reading) ([2]; A549, 1 μM): 0.345
- MTT assay reading, replicate well ([2]; A549, 1 μM): 0.303 and 0.302 and 0.313 and 0.359 and 0.422 and 0.316 and 0.4
- % control ([2]; A549, 1 μM): 0.60
- Average (MTT assay reading) ([3]; H596, 0.01 μM): 1.262
- MTT assay reading, replicate well ([3]; H596, 0.01 μM): 1.286 and 1.422 and 1.376 and 1.041 and 1.247 and 1.293 and 1.168
- % control ([3]; H596, 0.01 μM): 0.76
- Average (MTT assay reading) ([3]; H596, 0.1 μM): 0.6487
- MTT assay reading, replicate well ([3]; H596, 0.1 μM): 0.677 and 0.894 and 0.729 and 0.59 and 0.476 and 0.579 and 0.596
- % control ([3]; H596, 0.1 μM): 0.39
- Average (MTT assay reading) ([3]; H596, 0.5 μM): 0.4131
- MTT assay reading, replicate well ([3]; H596, 0.5 μM): 0.469 and 0.448 and 0.439 and 0.322 and 0.282 and 0.424 and 0.508
- % control ([3]; H596, 0.5 μM): 0.25
- Average (MTT assay reading) ([3]; H596, 1 μM): 0.4389
- MTT assay reading, replicate well ([3]; H596, 1 μM): 0.385 and 0.377 and 0.447 and 0.585 and 0.404 and 0.429 and 0.445
- % control ([3]; H596, 1 μM): 0.26
- Average (MTT assay reading) ([4]; H1299, 0.01 μM): 0.5019
- MTT assay reading, replicate well ([4]; H1299, 0.01 μM): 0.573 and 0.553 and 0.567 and 0.483 and 0.493 and 0.424 and 0.42
- % control ([4]; H1299, 0.01 μM): 0.65
- Average (MTT assay reading) ([4]; H1299, 0.1 μM): 0.2847
- MTT assay reading, replicate well ([4]; H1299, 0.1 μM): 0.302 and 0.338 and 0.317 and 0.271 and 0.215 and 0.272 and 0.278
- % control ([4]; H1299, 0.1 μM): 0.37
- Average (MTT assay reading) ([4]; H1299, 0.5 μM): 0.3656
- MTT assay reading, replicate well ([4]; H1299, 0.5 μM): 0.275 and 0.579 and 0.324 and 0.32 and 0.398 and 0.294 and 0.369
- % control ([4]; H1299, 0.5 μM): 0.48
- Average (MTT assay reading) ([4]; H1299, 1 μM): 0.2179
- MTT assay reading, replicate well ([4]; H1299, 1 μM): 0.157 and 0.202 and 0.236 and 0.233 and 0.217 and 0.262 and 0.218
- % control ([4]; H1299, 1 μM): 0.28
